The structures appear in SMILES notation.

In turn, `CCCCNC(=O)C1CCCCC1c1nc(SC)n[nH]1` (stereo unspecified) showed a logP of 2.97.

Turning to `CSc1n[nH]c(C2C3C=CC(C3)C2C(=O)Nc2ccccc2)n1` (stereo unspecified), the log partition coefficient (logP) was determined as 2.91. With `CCCCNC(=O)C1C2C=CC(C2)C1c1nc(SC)n[nH]1` (stereo unspecified), the log partition coefficient (logP) amounted to 2.55. `CCC(C)NC(=O)C1CCCCC1c1nc(SC)n[nH]1` (stereo unspecified) had a lipophilicity (logP) of 2.97. As to `CSc1n[nH]c(C2CCCCC2C(=O)Nc2ccccc2)n1` (stereo unspecified), the lipophilicity (logP) stood at 3.3. `CSc1n[nH]c(C2C3C=CC(C3)C2C(=O)Nc2ccc(Br)cc2)n1` (stereo unspecified) yielded a logP of 3.67. `CSc1n[nH]c(C2CCCCC2C(=O)Nc2ccccc2Cl)n1` (stereo unspecified) returned a logP of 3.84. The figure for `CSc1n[nH]c(C2C3C=CC(C3)C2C(=O)NC2CCCCC2)n1` (stereo unspecified) is 3.03.

`CSc1n[nH]c(C2CCCCC2C(=O)NC2CCCCC2)n1` (stereo unspecified) returned a lipophilicity (logP) of 3.48.

In turn, `COc1ccc(NC(=O)C2CCCCC2c2nc(SC)n[nH]2)cc1` (stereo unspecified) had a lipophilicity (logP) of 3.19. The compound `CCCNC(=O)C1CCCCC1c1nc(SC)n[nH]1` (stereo unspecified) registered a logP of 2.55. In turn, `CCCNC(=O)C1C2C=CC(C2)C1c1nc(SC)n[nH]1` (stereo unspecified) yielded a logP of 2.13. `CSc1n[nH]c(C2C3C=CC(C3)C2C(=O)Nc2cccc(C)c2)n1` (stereo unspecified) yielded a logP of 3.29.

For the compound `CSc1n[nH]c(C2CCCCC2C(=O)NCc2ccccc2)n1` (stereo unspecified), the lipophilicity (logP) came to 3.17. The figure for `CSc1n[nH]c(C2CCCCC2C(=O)Nc2ccc(Br)cc2)n1` (stereo unspecified) is 4.02; for `COc1ccc(NC(=O)C2C3C=CC(C3)C2c2nc(SC)n[nH]2)cc1` (stereo unspecified) it is 2.86; for `CCC(C)NC(=O)C1C2C=CC(C2)C1c1nc(SC)n[nH]1` (stereo unspecified) it is 2.57. For `CSc1n[nH]c(C2C3C=CC(C3)C2C(=O)Nc2ccccc2Cl)n1` (stereo unspecified), the log partition coefficient (logP) was 3.44.

For `CSc1n[nH]c(C2C3C=CC(C3)C2C(=O)NCCc2ccccc2)n1` (stereo unspecified), the logP turned out to be 3.12. The figure for `CSc1n[nH]c(C2CCCCC2C(=O)NCCc2ccccc2)n1` (stereo unspecified) is 3.51; for `CSc1n[nH]c(C2C3C=CC(C3)C2C(=O)NCc2ccccc2)n1` (stereo unspecified) it is 2.8.

The term logP denotes a log measure of how a compound divides between an organic and an aqueous phase. Low readings indicate a more hydrophilic compound, high ones a more lipophilic compound.

(Values after the SangsterLogP compilation.)
